Data on 3 compounds can be found in patent publication US20070099947A1, “Methods and compositions for the treatment of brain reward system disorders by combination therapy” (Alkermes, Inc., priority 2005, published 2007).

Series [1] concerns self-administration of ethanol. As to the kind of experiment: Operant self-administration of ethanol (lever presses for 10% ethanol cocktail). Format: in vivo, Male Wistar rats. To be noted: for Percent Change from Non-Drug Baseline: Repeated Dosing: Day 1 / Percent Change from Non-Drug Baseline: Repeated Dosing: Day 5 / Percent Change from Non-Drug Baseline: Single Dosing: lever presses for ethanol, naltrexone ED75 SC; for Percent Change from Non-Drug Baseline: Repeated Dosing: Day 1 / Percent Change from Non-Drug Baseline: Repeated Dosing: Day 5: once a day for 5 days; for effect on number of lever presses for ethanol over the dose range: naltrexone 0-6 mg/kg SC, 30 min before session; for Lever Presses (Mean ± SEM): 30 min session; for decrease in number of lever presses for ethanol compared to non-drug treated (baseline): naltrexone ED75 0.05-0.075 mg/kg SC alone. The procedure: Male Wistar rats (initial weight of 200±30 grams; Charles River Laboratories, MA) were individually housed with free access to food and water. The vivarium was maintained on a 12 hour light/dark cycle with a room temperature of 22±3° C.
Animals were trained daily in an operant chamber to press a lever to receive access to an ethanol cocktail as a reinforcer using a saccharin fading procedure. […] The final ethanol cocktail contained 10% ethanol in 0.04% saccharine. Each session lasted 30 minutes, during which the rat could press the lever twice to gain access to 0.1 mL of the ethanol cocktail. The operant chamber (Coulboume Instruments, Allentown, Pa.) is a computer-controlled automated system which recorded the number of lever presses completed by a rat. At the end of the training period (6-8 weeks), rats which consistently drank a minimum intake of 0.6 g/kg/hour of EtOH (approximately 60 bar presses) were selected to participate in the drug studies. These trained rats were used repeatedly throughout these studies to control for intra-subject variability. Assessments of drug effects were made following a single dosing, with a minimum of a 2 day drug washout period between arms of studies.
The ability of naltrexone to reduce ethanol drinking (i.e., decrease the number of lever presses) was assessed in this animal model of self administration of ethanol. […] The total number of lever presses was recorded over the 30 minute test session. […] In addition, oral activity was also assessed. […] The animals were tested in the operant chambers one hour later and the number of lever presses for ethanol was recorded for the 30 minute session.
This dose allows one to determine if the co-administered drugs impaired or enhanced naltrexone's effect on ethanol drinking. The drugs were administered orally 30 minutes prior to a naltrexone injection (SC), and 60 minutes prior to the beginning of the ethanol drinking test session. The number of lever presses for the ethanol cocktail was recorded at the end of the 30 minute session.
Repeated Dosing. The previous studies were conducted using a single dosing procedure. To determine if this drug interaction might be further enhanced with repeated daily dosing or conversely, the effect on decreasing alcohol self-administration is lost (due to tolerance) following multiple daily dosing, the study was repeated with a once-a-day for 5 days dosing procedure. […] Animals were tested on Day 1 and on Day 5.
Repeated Dosing. The previous study was conducted using a single dosing procedure. To determine if this drug interaction might be further enhanced with repeated dosing or conversely, the effect on decreasing alcohol self-administration is lost (due to tolerance) following multiple daily dosing, the study was repeated with a once-a-day for 5 days dosing procedure. […] Animals were tested on Day 1 and on Day 5.

In series [2] the test system is morphine-induced analgesia. As to the kind of experiment: Hotplate test: inhibition of morphine-induced analgesia. The format is in vivo, Male Wistar rats. To be noted: 5 consecutive days SC dosing; first vs last day response latencies.
Series [3] can be described thus: Pharmacokinetic profile of opioid antagonists after IV, PO and SC administration. To be noted: rat; for AUC(0-inf) / bioavailability: male, Sprague Dawley, in vivo. The procedure: Blood samples were collected for 6 hours post-dose. Concentrations of each parent drug were determined by LC/MS-MS. Pharmacokinetic parameters were determined by noncompartmental analysis.

Turning to `Cc1c(C(=O)NN2CCCCC2)nn(-c2ccc(Cl)cc2Cl)c1-c1ccc(I)cc1` [AM-251], the “lever pressing for ethanol compared to non-drug treated conditions” value in series [1] (AM-251 3.0 mg/kg alone) is reported as “no effect”. In series [1] (AM-251 1 mg/kg PO), the “Percent Change from Non-Drug Baseline: Repeated Dosing: Day 1” value is listed as −2% and the “Percent Change from Non-Drug Baseline: Repeated Dosing: Day 5” value was “+19%”.
For `NC[C@H](CC(=O)O)c1ccc(Cl)cc1` [Baclofen, R(+)-Baclofen], the “lever pressing for ethanol compared to non-drug treated conditions” value in series [1] (baclofen 3.0 mg/kg alone, p<0.01) is “significantly decreased the self-administration of ethanol”. Further, in series [1] (baclofen 0.3 mg/kg PO), the “Percent Change from Non-Drug Baseline: Repeated Dosing: Day 1” value is recorded as −35% and the “Percent Change from Non-Drug Baseline: Repeated Dosing: Day 5” value was −30%.
Usually AUC(0-inf) stands for the area under the concentration-time curve extrapolated to infinity. One may read the bioavailability as dose-corrected exposure relative to a reference, in per cent. As for `O=C1CC[C@@]2(O)[C@H]3Cc4ccc(O)c5c4[C@@]2(CCN3CC2CC2)[C@H]1O5` [Naltrexone], the “effect on decreasing self-administration of ethanol” value in series [1] (0.5 mg/kg SC, 30 minutes prior to testing) is given as “equivalent effects”. In addition, the “effect on decreasing self-administration of ethanol (oral activity)” value in series [1] (10 mg/kg oral gavage, tested one hour later) is recorded as “only RDC-0313-01 was active”. In addition, the “ED75 (dose of naltrexone that produced a 25% decrease in lever responses for ethanol)” value in series [1] (SC, titrated for each individual animal) fell in the range of 0.05 to 0.075 mg/kg. In addition, the “Percent Change from Non-Drug Baseline: Repeated Dosing: Day 1” value was −24% in series [1] (AM-251 1 mg/kg PO) and −43% in series [1] (baclofen 0.3 mg/kg PO). Besides, the results for the “Percent Change from Non-Drug Baseline: Repeated Dosing: Day 5” value in series [1] (AM-251 1 mg/kg PO) and in series [1] (baclofen 0.3 mg/kg PO) were −19% and −57%, respectively. The “Percent Change from Non-Drug Baseline: Single Dosing” value in series [1] (AM-251 PO) is on record as −33%; in series [1] (baclofen PO), −18%. For the same compound, the “decrease in lever presses versus baseline and vehicle control” value in series [1] (lowest dose of naltrexone tested, 0.05 mg/kg) is on record as “no significant decrease”. Besides, the “effect on number of lever presses for ethanol over the dose range” value in series [1] is given as “Suppresses the Self-Administration of Ethanol in a Dose-Dependent Manner”; in series [1] (listed as naltrexone), “dose-dependent decrease in the number of lever presses”. The “Approximate Absolute Ethanol Consumed” value in series [1] (naltrexone 0.05 mg/kg SC) is given as 1.0 g/kg; in series [1] (naltrexone 0.1 mg/kg SC), 0.7 g/kg; in series [1] (naltrexone 0.5 mg/kg SC) it was 0.6 g/kg; in series [1] (naltrexone 1.0 mg/kg SC), 0.3 g/kg; in series [1] (naltrexone 3.0 mg/kg SC), 0.2 g/kg; in series [1] (naltrexone 6.0 mg/kg SC), 0.2 g/kg. The “Lever Presses (Mean ± SEM)” value in series [1] (naltrexone 0.05 mg/kg SC) turned out to be 132 ± 13.3; in series [1] (naltrexone 0.1 mg/kg SC), 88 ± 8.6; in series [1] (naltrexone 0.5 mg/kg SC), 83 ± 12.1; in series [1] (naltrexone 1.0 mg/kg SC), 43 ± 8.6; in series [1] (naltrexone 3.0 mg/kg SC), 24 ± 8.1; in series [1] (naltrexone 6.0 mg/kg SC), 21 ± 5.5. The “effect on decreasing ethanol drinking at the higher doses” value in series [1] (naltrexone 3 and 6 mg/kg) is “appeared to plateau”. Further, the results for the “decrease in number of lever presses for ethanol compared to non-drug treated (baseline)” value in series [1] (AM-251 acute dosing study) and in series [1] (baclofen single dosing study) were 32.5% and 18%, respectively. The “development of tolerance in blocking morphine-induced analgesia” value in series [2] was “no development of tolerance”. Also, the AUC(0-inf) was found to be 150 ng·h/mL in series [3] (po, 10 mg/kg) and 14.4 ng·h/mL in series [3] (sc, 0.1 mg/kg). In addition, the bioavailability was 3% in series [3] (po, 10 mg/kg) and 31% in series [3] (sc, 0.1 mg/kg). For the same compound, the absorption result in series [3] (PO or SC) is “rapidly absorbed”.
